According to ChEMBL document CHEMBL1151852, “Tetranortriterpenoids from the Leaves of Cipadessa cinerascens” (2009):

Tested on: P388
Experiment: Cytotoxicity against mouse P388 cells after 72 hrs by MTT assay
Type: functional
Conditions: P388, 72 h, read-out: ED50 (the source's name)

SMILES	EC50 [µg/mL]
C=C1[C@@H]2CC[C@@]3(C)[C@H](c4ccoc4)OC(=O)C[C@]13O[C@H]1[C@H](OC(C)=O)[C@H](OC(C)=O)C(C)(C)[C@H](CC(=O)OC)[C@@]21C	> 5
CC[C@@H](C)C(=O)O[C@@H]1[C@H]2C(=O)[C@@](C)([C@@H](CC(=O)OC)C1(C)C)[C@@]13O[C@@H]1C[C@@]1(C)[C@H](c4ccoc4)OC(=O)C[C@@H]1[C@]31O[C@H]21 [CINERACIPADESIN A]	> 5
C=C1[C@@]23CC(=O)O[C@@H](c4ccoc4)[C@]2(C)C[C@@H](O)[C@]1(O)[C@@]1(C)[C@@H](O3)[C@@H](OC(C)=O)[C@@H](OC(C)=O)C(C)(C)[C@@H]1CC(=O)OC [CINERACIPADESIN B]	> 5
C=C1[C@]2(O)C(=O)C[C@@]3(C)[C@H](c4ccoc4)OC(=O)C[C@]13O[C@H]1C[C@@H](OC(C)=O)C(C)(C)[C@H](CC(=O)OC)[C@]12C [CINERACIPADESIN C]	> 5
C=C1[C@@H]2[C@H](OC(C)=O)C[C@@]3(C)[C@H](c4ccoc4)OC(=O)C[C@]13O[C@H]1C[C@@H](OC(C)=O)C(C)(C)[C@H](CC(=O)OC)[C@]12C [CINERACIPADESIN D]	> 5
C=C1[C@@H]2[C@H](OC(C)=O)C[C@@]3(C)[C@H](c4ccoc4)OC(=O)C[C@]13O[C@H]1[C@@H](OC(C)=O)[C@@H](OC(C)=O)C(C)(C)[C@H](CC(=O)OC)[C@@]21C [CINERACIPADESIN E]	> 5
C=C1[C@]2(OC(C)=O)C[C@@]3(C)[C@H](c4ccoc4)OC(=O)C[C@]13O[C@H]1[C@@H](OC(C)=O)[C@@H](OC(C)=O)C(C)(C)[C@H](CC(=O)OC)[C@@]1(C)C2=O [CINERACIPADESIN F]	> 5
